Reference: US9586901B2, “Lactams” (UNILEVER PLC, priority 2006, dated 2017)

What was measured:
LasR = LasR assay (unstable gfp fused to the elastase promoter); assay type: cell-based; settings: Pseudomonas aeruginosa, read-out: LasR (conc)
Procedure: Compounds of the present invention were also assayed using a LasR assay. The LasR assay provides a measurement of quorum sensing inhibition activity. The higher the percentage inhibition. […] In the LasR assay, an unstable gfp has been fused to the elastase promoter, so that the amount of Gfp is regulated by the QS system. The plasmid is put into Pseudomonas aeruginosa which makes its own AHL signals. The assay is performed by adding the compounds to be tested to the system at the beginning of the experiment, at different concentrations. Gfp expression is measured at different times during growth, ending at the 24 h time point. The percentage fluorescence was determined at the time point when the fluorescence reached its maximum in the control, usually around 11-12 h after inoculation.

E. coli biofilm = assay: Inhibition of biofilm formation in petri dishes, E. coli; assay type: cell-based; settings: 1.5 ug/ml; percent reduction of control
Procedure: (§1) Biofilm formation in petri dishes was measured using the following protocol as a compromise between flow cells and microtitire plate based assays. The method increases the number of replicates (relative to flow cells) that can be tested while still generating a biofilm that has typical structures, such as microcolonies, which are important as differentiated structures within the biofilm. The method consists of placing a surface, such as a glass slide (for unattached compounds) or a modified plastic coupon (for covalently attached compounds) on the bottom of a sterile petri dish and adding growth medium. The bacteria are inoculated into the dish and allowed to incubate at the appropriate temperature at 50 rpm. The medium is replaced at 24 h and allowed to incubate a further 24 h, after which time, the slides are removed and rinsed to remove loosely attached cells. For monitoring biofilm formation on glass slides, the cells are either stained with a suitable fluorescent stain and are visualised using the confocal microscope and the biofilm (as % surface coverage) is quantified, or the biofilm is stained with crystal violet, washed thoroughly to remove excess stain, and subsequently destained and the absorbance at […] is measured to determine the amount of biofilm, as a function of crystal violet staining.

S. epidermidis biofilm = assay: Inhibition of biofilm formation in petri dishes, S. epidermidis; assay type: cell-based; settings: 0.32 ug/ml; percent reduction of control
Procedure: as §1

P. aeruginosa biofilm = assay: Inhibition of biofilm formation in petri dishes, P. aeruginosa; assay type: cell-based; settings: 1 ug/ml; percent reduction of control
Procedure: as §1

[1] = test system: Staphylococcus epidermidis; assay: S. epidermidis growth inhibition (OD600 growth curves); assay type: cell-based; settings: concentration of compound that significantly alters growth rate or final growth yield
Procedure: The growth inhibition of Staphylococcus epidermidis by the compounds of the present invention was determined by growing S. epidermidis in 96 well microtitre plates in Trypticase Soy Broth plus 0.5% glucose in a Wallac Victor2 microplate reader. Each compound was added to the wells at different concentrations and a no-compound control and a set of blank wells were also used. The OD600 was measured hourly.

V. fischeri luxRI system = assay: N-acylated homoserine lactone (AHL) quorum sensing assay, GFP reporter strain; assay type: cell-based, E. coli
Procedure: Compounds of the present invention were compared to compounds of the prior art in order using an AHL-quorum sensing assay which utilises a reporter strain that expresses Green Fluorescent Protein (GFP) in the presence of AHL signals. The assay is performed by measuring GFP output in the presence of the compound to be measured and comparing the output to a control. By using multiple samples at varying concentrations of compound and AHL, an inhibition index of compound activity can be generated. The inhibition index used in the present example is the relative amount of compound required to reduce GFP expression to 40% of the control. The inhibition index is termed AIC40. Lower values of AIC40 represent better inhibitors of the AHL quorum sensing system.
The reporter strain of bacterium used in this assay is E. coli into which the V. fischeri luxRI system has been engineered. A gfp gene is fused to the QS controlled luxI promoter as is described in (Andersen et al., 2001, and Andersen et al, 1998).
Measurement of AIC40 (ID40 at 3 nM OHHL)
Determination of the activity of compounds using the E. coli based luxRI construct was performed as follows.
In a 15 mL plastic tube, mix 3 mL of o.n. culture of the lux reporter strain with 12 mL fresh medium, incubate at 37° C. Label six tubes, 10, 20, two 50 and two 100. To each of the tubes, add OHHL (3-oxohexanoyl homoserine lactone) to a final concentration of 10, 20, 50, or 100 nM respectively in the AB medium (add enough medium to distribute across the appropriate number of wells). To the first row of the microplate (row A), add 200 ul of the OHHL/AB mixture. To the remaining rows (B-H) add 100 ul of the OHHL/AB mixture. To the first row (A) add compounds to be tested to the 200 ul mixture of OHHL/AB. Make a dilution series in the first 7 rows by transferring 100 μL from wells in row 1 to wells in row 2 and so on. Discard the remaining 100 μL from row 7. Add 100 μL diluted lux monitor to each well. Incubate the plate 2 hours at 37° C. and measure green fluorescence using the “Victor” plate reader.
Calculate ID40 for each column. To do this, calculate the relative activity in each well. […] Make a plot for each concentration of OHHL vs. the range of compound concentrations used. Calculate the amount of compound needed to lower the relative activity to 40%, this is termed inhibiting dose 40%, ID40. For each compound an inhibition index, AIC40, is found as follows: plot ID40 against its respective AHL concentration; AIC40 is the slope of the best straight line through the plotted points and origin.
The methodology for this assay is set out in 2(a) above.

C=C1NC(=O)C=C1c1ccc(Br)cc1 [drawing 25] was tested. Which inhibition at 50 µg/mL (LasR) did it give?
Its inhibition at 50 µg/mL is 45%.

And the E. coli biofilm (E. coli biofilm)?
The E. coli biofilm was 93% (1.5 ug/ml).

What about the S. epidermidis biofilm (S. epidermidis biofilm) of the same compound?
Its S. epidermidis biofilm is 41% (0.32 ug/ml).

What about the P. aeruginosa biofilm (P. aeruginosa biofilm) of the same compound?
The P. aeruginosa biofilm was 32% (1 ug/ml).

What about the minimal effective concentration [1] of the same compound?
Its minimal effective concentration is 1 µg/mL.

And the “ID40 at 3 nM OHHL” value (V. fischeri luxRI system; Table 4, number in parentheses, amount of compound lowering relative activity to 40%)?
The value was 21 nM.

What about the AIC40 (V. fischeri luxRI system; Table 4 comparative results, first number of the cell, lower = better) of the same compound?
The AIC40 was 0.49.

And the AIC40 (V. fischeri luxRI system; inhibition index: slope of ID40 against AHL concentration, lower = better inhibitor, NE = no effect)?
The AIC40 was 0.49.
